Measured values from the supplement of paper PMC10307832.

Key:
Assay in all cases: relative viability (nuclei count vs DMSO), 5 days (fraction); higher = more cells survive
[1] = compound: COc1cc2nc(N3CCCN(C)CC3)nc(NC3CCN(Cc4ccccc4)CC3)c2cc1OC + COc1cccc2cc(-c3nc([C@H]4CC[C@H](C(=O)O)CC4)n4ncnc(N)c34)[nH]c12 [OSI-027] (partner 0.5 µM)
How it was run: (§1)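 Medians of duplicate plates are given as relative viability. That measure is the nuclei count in treated wells divided by the count in vehicle wells. Counts were taken on 4× images of lung cancer cell lines in 1536-well plates, 5 days after pin-tool dosing the day after seeding with one drug alone or a fixed anchor-drug dose plus five library-drug doses (not always all listed) in √10 steps.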

[2] = compound: COc1cc2nc(N3CCCN(C)CC3)nc(NC3CCN(Cc4ccccc4)CC3)c2cc1OC + N=C(N)NC(=N)NCCc1ccccc1 [Phenformin] (partner 250 µM)
How it was run: as §1

[3] = compound: COc1cc2nc(N3CCCN(C)CC3)nc(NC3CCN(Cc4ccccc4)CC3)c2cc1OC + C[C@]1(O)C[C@@H](c2nc(-c3ccc4ccc(-c5ccccc5)nc4c3)c3c(N)nccn32)C1 [Linsitinib] (partner 1 µM)
How it was run: as §1

AZD6482 + Luminespib = compound: Cc1cc([C@@H](C)Nc2ccccc2C(=O)O)c2nc(N3CCOCC3)cc(=O)n2c1 [AZD6482] + CCNC(=O)c1noc(-c2cc(C(C)C)c(O)cc2O)c1-c1ccc(CN2CCOCC2)cc1 [Luminespib] (partner 0.01 µM)
How it was run: as §1

Cell Line: HCC-44
- relative viability ([1]; first compound 0.2 µM): 0.604
- relative viability ([1]; first compound 0.6325 µM): 0.571
- relative viability ([1]; first compound 2 µM): 0.576
- relative viability ([1]; first compound 6.325 µM): 0.586
- relative viability ([2]; first compound 0.2 µM): 0.252
- relative viability ([2]; first compound 0.6325 µM): 0.376
- relative viability ([2]; first compound 2 µM): 0.339
- relative viability ([2]; first compound 6.325 µM): 0.27
- relative viability ([3]; first compound 0.2 µM): 0.688
- relative viability ([3]; first compound 0.6325 µM): 0.549
- relative viability ([3]; first compound 2 µM): 0.786
- relative viability ([3]; first compound 6.325 µM): 0.695
- relative viability (AZD6482 + Luminespib; first compound 0.08 µM): 0.941
- relative viability (AZD6482 + Luminespib; first compound 0.253 µM): 1.12
- relative viability (AZD6482 + Luminespib; first compound 0.8 µM): 0.98
- relative viability (AZD6482 + Luminespib; first compound 2.53 µM): 0.824
- relative viability (AZD6482 + Luminespib; first compound 8 µM): 1.1

Cell Line: HCC-827
- relative viability ([1]; first compound 0.2 µM): 0.761
- relative viability ([1]; first compound 0.6325 µM): 0.793
- relative viability ([1]; first compound 2 µM): 0.687
- relative viability ([1]; first compound 6.325 µM): 0.781
- relative viability ([2]; first compound 0.2 µM): 0.405
- relative viability ([2]; first compound 0.6325 µM): 0.431
- relative viability ([2]; first compound 2 µM): 0.294
- relative viability ([2]; first compound 6.325 µM): 0.402
- relative viability ([3]; first compound 0.2 µM): 1
- relative viability ([3]; first compound 0.6325 µM): 0.969
- relative viability ([3]; first compound 2 µM): 0.967
- relative viability ([3]; first compound 6.325 µM): 0.941
- relative viability (AZD6482 + Luminespib; first compound 0.08 µM): 0.601
- relative viability (AZD6482 + Luminespib; first compound 0.253 µM): 0.478
- relative viability (AZD6482 + Luminespib; first compound 0.8 µM): 0.293
- relative viability (AZD6482 + Luminespib; first compound 2.53 µM): 0.27
- relative viability (AZD6482 + Luminespib; first compound 8 µM): 0.196

Cell Line: NCI-H1623
- relative viability ([1]; first compound 0.2 µM): 0.443
- relative viability ([1]; first compound 0.6325 µM): 0.472
- relative viability ([1]; first compound 2 µM): 0.444
- relative viability ([1]; first compound 6.325 µM): 0.444
- relative viability ([2]; first compound 0.2 µM): 0.62
- relative viability ([2]; first compound 0.6325 µM): 0.621
- relative viability ([2]; first compound 2 µM): 0.522
- relative viability ([2]; first compound 6.325 µM): 0.569
- relative viability (AZD6482 + Luminespib; first compound 0.08 µM): 0.48
- relative viability (AZD6482 + Luminespib; first compound 0.253 µM): 0.402
- relative viability (AZD6482 + Luminespib; first compound 0.8 µM): 0.472
- relative viability (AZD6482 + Luminespib; first compound 2.53 µM): 0.45
- relative viability (AZD6482 + Luminespib; first compound 8 µM): 0.413

Cell Line: NCI-H2347
- relative viability ([1]; first compound 0.2 µM): 0.461
- relative viability ([1]; first compound 0.6325 µM): 0.304
- relative viability ([1]; first compound 2 µM): 0.452
- relative viability ([1]; first compound 6.325 µM): 0.472
- relative viability ([2]; first compound 0.2 µM): 0.399
- relative viability ([2]; first compound 0.6325 µM): 0.447
- relative viability ([2]; first compound 2 µM): 0.555
- relative viability ([2]; first compound 6.325 µM): 0.408
- relative viability ([3]; first compound 0.2 µM): 0.936
- relative viability ([3]; first compound 0.6325 µM): 0.927
- relative viability ([3]; first compound 2 µM): 0.882
- relative viability ([3]; first compound 6.325 µM): 0.922
- relative viability (AZD6482 + Luminespib; first compound 0.08 µM): 0.329
- relative viability (AZD6482 + Luminespib; first compound 0.253 µM): 0.231
- relative viability (AZD6482 + Luminespib; first compound 0.8 µM): 0.583
- relative viability (AZD6482 + Luminespib; first compound 2.53 µM): 0.27
- relative viability (AZD6482 + Luminespib; first compound 8 µM): 0.281

Cell Line: PC-14
- relative viability ([1]; first compound 0.2 µM): 0.758
- relative viability ([1]; first compound 0.6325 µM): 0.734
- relative viability ([1]; first compound 2 µM): 0.733
- relative viability ([1]; first compound 6.325 µM): 0.0418
- relative viability ([2]; first compound 0.2 µM): 0.584
- relative viability ([2]; first compound 0.6325 µM): 0.703
- relative viability ([2]; first compound 2 µM): 0.527
- relative viability ([2]; first compound 6.325 µM): 0.265
- relative viability ([3]; first compound 0.2 µM): 0.923
- relative viability ([3]; first compound 0.6325 µM): 0.91
- relative viability ([3]; first compound 2 µM): 1.02
- relative viability ([3]; first compound 6.325 µM): 0.865
- relative viability (AZD6482 + Luminespib; first compound 0.08 µM): 0.156
- relative viability (AZD6482 + Luminespib; first compound 0.253 µM): 0.16
- relative viability (AZD6482 + Luminespib; first compound 0.8 µM): 0.145
- relative viability (AZD6482 + Luminespib; first compound 8 µM): 0.142

Cell Line: NCI-H1651
- relative viability ([1]; first compound 0.2 µM): 0.706
- relative viability ([1]; first compound 0.6325 µM): 0.686
- relative viability ([1]; first compound 2 µM): 0.729
- relative viability ([1]; first compound 6.325 µM): 0.714
- relative viability ([2]; first compound 0.2 µM): 0.351
- relative viability ([2]; first compound 0.6325 µM): 0.33
- relative viability ([2]; first compound 2 µM): 0.329
- relative viability ([2]; first compound 6.325 µM): 0.318
- relative viability ([3]; first compound 0.2 µM): 1.02
- relative viability ([3]; first compound 0.6325 µM): 0.903
- relative viability ([3]; first compound 2 µM): 1.09
- relative viability ([3]; first compound 6.325 µM): 0.893
- relative viability (AZD6482 + Luminespib; first compound 0.08 µM): 0.779
- relative viability (AZD6482 + Luminespib; first compound 0.253 µM): 0.805
- relative viability (AZD6482 + Luminespib; first compound 0.8 µM): 0.773
- relative viability (AZD6482 + Luminespib; first compound 2.53 µM): 0.812
- relative viability (AZD6482 + Luminespib; first compound 8 µM): 0.753

Cell Line: HARA
- relative viability ([1]; first compound 0.2 µM): 0.535
- relative viability ([1]; first compound 0.6325 µM): 0.483
- relative viability ([1]; first compound 2 µM): 0.454
- relative viability ([1]; first compound 6.325 µM): 0.398
- relative viability ([2]; first compound 0.2 µM): 0.474
- relative viability ([2]; first compound 0.6325 µM): 0.425
- relative viability ([2]; first compound 2 µM): 0.494
- relative viability ([2]; first compound 6.325 µM): 0.462
- relative viability ([3]; first compound 0.2 µM): 0.798
- relative viability ([3]; first compound 0.6325 µM): 0.889
- relative viability ([3]; first compound 2 µM): 1
- relative viability ([3]; first compound 6.325 µM): 0.948
- relative viability (AZD6482 + Luminespib; first compound 0.08 µM): 0.58
- relative viability (AZD6482 + Luminespib; first compound 0.253 µM): 0.636
- relative viability (AZD6482 + Luminespib; first compound 0.8 µM): 0.57
- relative viability (AZD6482 + Luminespib; first compound 2.53 µM): 0.627
- relative viability (AZD6482 + Luminespib; first compound 8 µM): 0.419

Cell Line: NCI-H1650
- relative viability ([1]; first compound 0.2 µM): 0.602
- relative viability ([1]; first compound 0.6325 µM): 0.857
- relative viability ([1]; first compound 2 µM): 0.519
- relative viability ([1]; first compound 6.325 µM): 0.555
- relative viability ([2]; first compound 0.2 µM): 0.494
- relative viability ([2]; first compound 0.6325 µM): 0.612
- relative viability ([2]; first compound 2 µM): 0.379
- relative viability ([2]; first compound 6.325 µM): 0.369
- relative viability (AZD6482 + Luminespib; first compound 0.08 µM): 0.182
- relative viability (AZD6482 + Luminespib; first compound 0.253 µM): 0.189
- relative viability (AZD6482 + Luminespib; first compound 0.8 µM): 0.204
- relative viability (AZD6482 + Luminespib; first compound 2.53 µM): 0.186
- relative viability (AZD6482 + Luminespib; first compound 8 µM): 0.194

Cell Line: NCI-H1395
- relative viability ([1]; first compound 0.2 µM): 0.715
- relative viability ([1]; first compound 0.6325 µM): 0.731
- relative viability ([1]; first compound 2 µM): 0.677
- relative viability ([1]; first compound 6.325 µM): 0.419
- relative viability ([2]; first compound 0.2 µM): 0.461
- relative viability ([2]; first compound 0.6325 µM): 0.451
- relative viability ([2]; first compound 2 µM): 0.433
- relative viability ([2]; first compound 6.325 µM): 0.397
- relative viability ([3]; first compound 0.2 µM): 1.16
- relative viability ([3]; first compound 0.6325 µM): 1.13
- relative viability ([3]; first compound 2 µM): 0.912
- relative viability ([3]; first compound 6.325 µM): 1.12
- relative viability (AZD6482 + Luminespib; first compound 0.08 µM): 0.541
- relative viability (AZD6482 + Luminespib; first compound 0.253 µM): 0.601
- relative viability (AZD6482 + Luminespib; first compound 0.8 µM): 0.514
- relative viability (AZD6482 + Luminespib; first compound 2.53 µM): 0.376
- relative viability (AZD6482 + Luminespib; first compound 8 µM): 0.482

Cell Line: LU99A
- relative viability ([1]; first compound 0.2 µM): 0.319
- relative viability ([1]; first compound 0.6325 µM): 0.292
- relative viability ([1]; first compound 2 µM): 0.26
- relative viability ([1]; first compound 6.325 µM): 0.278
- relative viability ([2]; first compound 0.2 µM): 0.846
- relative viability ([2]; first compound 0.6325 µM): 0.827
- relative viability ([2]; first compound 2 µM): 0.691
- relative viability ([2]; first compound 6.325 µM): 0.857
- relative viability ([3]; first compound 0.2 µM): 0.628
- relative viability ([3]; first compound 0.6325 µM): 0.537
- relative viability ([3]; first compound 2 µM): 0.552
- relative viability ([3]; first compound 6.325 µM): 0.549
- relative viability (AZD6482 + Luminespib; first compound 0.08 µM): 0.323
- relative viability (AZD6482 + Luminespib; first compound 0.253 µM): 0.26
- relative viability (AZD6482 + Luminespib; first compound 0.8 µM): 0.334
- relative viability (AZD6482 + Luminespib; first compound 2.53 µM): 0.237
- relative viability (AZD6482 + Luminespib; first compound 8 µM): 0.238
